Test results from ChEMBL document CHEMBL3885861, “Open TG-GATES”.

Species on record: Rattus norvegicus
Experiment: Open TG-GATES - Regimen: Daily Repeat
Type: toxicity, organism-based, Sprague-Dawley
Set-up: regimen Daily Repeat, gender Male, age 6 weeks
Details: in vivo, po, 300 mg/kg, route gavage, dose level Low; for APTT / Bas / Eos / Fbg / Hb / Ht / Lym / MCH / MCHC / MCV / Mono / Neu / PT / Plat / RBC / Ret / WBC: tissue Blood; for KIDNEY_L / KIDNEY_R / KIDNEY_TOTAL: tissue Kidney; for LIVER: tissue Liver; for A/G / ALP / ALT / AST / BUN / CRE / Ca / Cl / DBIL / GLC / IP / K / LDH / Na / PL / RALB / TBIL / TC / TG / TP / gamma-GTP: tissue Plasma

COc1ccc(O)c(C(C)(C)C)c1.COc1ccc(O)cc1C(C)(C)C [BUTYLATED HYDROXYANISOLE]
TERMINAL_BW (72 h, time 3 day): 219.2 g | APTT (72 h, time 3 day): 15.4 s | Bas (72 h, time 3 day): 0.3% | Eos (72 h, time 3 day): 1.2% | Fbg (72 h, time 3 day): 275.8 mg/dL | Hb (72 h, time 3 day): 12.7 g/dL | Ht (72 h, time 3 day): 37.2% | Lym (72 h, time 3 day): 78.2% | MCH (72 h, time 3 day): 20.4 pg | MCHC (72 h, time 3 day): 34.2% | MCV (72 h, time 3 day): 59.9 fL | Mono (72 h, time 3 day): 2.2% | Neu (72 h, time 3 day): 17.1% | PT (72 h, time 3 day): 11.5 s | Plat (72 h, time 3 day): 148 x10_4/uL | RBC (72 h, time 3 day): 623.6 x10_4/ul | Ret (72 h, time 3 day): 4.9% | WBC (72 h, time 3 day): 112 x10_2/uL | KIDNEY_L (72 h, time 3 day): 0.9 g | KIDNEY_R (72 h, time 3 day): 0.9 g | KIDNEY_TOTAL (72 h, time 3 day): 1.7 g | LIVER (72 h, time 3 day): 12.2 g | A/G (72 h, time 3 day): 0.8 | ALP (72 h, time 3 day): 1525.6 IU/L | ALT (72 h, time 3 day): 36.4 IU/L | AST (72 h, time 3 day): 64.8 IU/L | BUN (72 h, time 3 day): 15.8 mg/dL | CRE (72 h, time 3 day): 0.2 mg/dL | Ca (72 h, time 3 day): 11.2 mg/dL | Cl (72 h, time 3 day): 106.4 meq/L | DBIL (72 h, time 3 day): 0.02 mg/dL | GLC (72 h, time 3 day): 171.4 mg/dL | IP (72 h, time 3 day): 6.3 mg/dL | K (72 h, time 3 day): 4.3 meq/L | LDH (72 h, time 3 day): 60.6 IU/L | Na (72 h, time 3 day): 142.2 meq/L | PL (72 h, time 3 day): 173.4 mg/dL | RALB (72 h, time 3 day): 2.7 g/dL | TBIL (72 h, time 3 day): 0.064 mg/dL | TC (72 h, time 3 day): 95.6 mg/dL | TG (72 h, time 3 day): 89.8 mg/dL | TP (72 h, time 3 day): 6 g/dL | gamma-GTP (72 h, time 3 day): 1.2 IU/L | TERMINAL_BW ([…], time 7 day): 261 g | TERMINAL_BW ([…], time 14 day): 311.5 g | TERMINAL_BW ([…], time 28 day): 401.5 g | APTT ([…], time 7 day): 15.7 s | Bas ([…], time 7 day): 0.2% | Eos ([…], time 7 day): 0.6% | Fbg ([…], time 7 day): 300.8 mg/dL | Hb ([…], time 7 day): 13 g/dL | Ht ([…], time 7 day): 38.5% | Lym ([…], time 7 day): 74.3% | MCH ([…], time 7 day): 20.4 pg | MCHC ([…], time 7 day): 33.7% | MCV ([…], time 7 day): 60.4 fL | Mono ([…], time 7 day): 2.4% | Neu ([…], time 7 day): 21.7% | PT ([…], time 7 day): 11.5 s | Plat ([…], time 7 day): 154.1 x10_4/uL | RBC ([…], time 7 day): 638 x10_4/ul | Ret ([…], time 7 day): 6.1% | WBC ([…], time 7 day): 97.1 x10_2/uL | APTT ([…], time 14 day): 15.2 s | Bas ([…], time 14 day): 0.2% | Eos ([…], time 14 day): 0.7% | Fbg ([…], time 14 day): 319.4 mg/dL | Hb ([…], time 14 day): 13.7 g/dL | Ht ([…], time 14 day): 39.7% | Lym ([…], time 14 day): 77.1% | MCH ([…], time 14 day): 19.7 pg | MCHC ([…], time 14 day): 34.6% | MCV ([…], time 14 day): 57 fL | Mono ([…], time 14 day): 2.2% | Neu ([…], time 14 day): 19.3% | PT ([…], time 14 day): 11.5 s | Plat ([…], time 14 day): 140.8 x10_4/uL | RBC ([…], time 14 day): 696.8 x10_4/ul | Ret ([…], time 14 day): 3.8% | WBC ([…], time 14 day): 87.1 x10_2/uL | APTT ([…], time 28 day): 19.5 s | Bas ([…], time 28 day): 0.5% | Eos ([…], time 28 day): 0.6% | Fbg ([…], time 28 day): 303.6 mg/dL | Hb ([…], time 28 day): 14.9 g/dL | Ht ([…], time 28 day): 41.2% | Lym ([…], time 28 day): 75.9% | MCH ([…], time 28 day): 19.7 pg | MCHC ([…], time 28 day): 36% | MCV ([…], time 28 day): 54.7 fL | Mono ([…], time 28 day): 1.7% | Neu ([…], time 28 day): 20.7% | PT ([…], time 28 day): 12.1 s | Plat ([…], time 28 day): 114.8 x10_4/uL | RBC ([…], time 28 day): 753.2 x10_4/ul | Ret ([…], time 28 day): 2.2% | WBC ([…], time 28 day): 131.8 x10_2/uL | KIDNEY_L ([…], time 7 day): 1 g | KIDNEY_R ([…], time 7 day): 1 g | KIDNEY_TOTAL ([…], time 7 day): 2.1 g | KIDNEY_L ([…], time 14 day): 1.1 g | KIDNEY_R ([…], time 14 day): 1.1 g | KIDNEY_TOTAL ([…], time 14 day): 2.2 g | KIDNEY_L ([…], time 28 day): 1.4 g | KIDNEY_R ([…], time 28 day): 1.3 g | KIDNEY_TOTAL ([…], time 28 day): 2.7 g | LIVER ([…], time 7 day): 13.6 g | LIVER ([…], time 14 day): 15.1 g | LIVER ([…], time 28 day): 18.5 g | A/G ([…], time 7 day): 0.8 | ALP ([…], time 7 day): 1426 IU/L | ALT ([…], time 7 day): 33.8 IU/L | AST ([…], time 7 day): 59.8 IU/L | BUN ([…], time 7 day): 15.2 mg/dL | CRE ([…], time 7 day): 0.2 mg/dL | Ca ([…], time 7 day): 11.3 mg/dL | Cl ([…], time 7 day): 105 meq/L | DBIL ([…], time 7 day): 0.018 mg/dL | GLC ([…], time 7 day): 176 mg/dL | IP ([…], time 7 day): 7.2 mg/dL | K ([…], time 7 day): 3.9 meq/L | LDH ([…], time 7 day): 61.2 IU/L | Na ([…], time 7 day): 142.8 meq/L | PL ([…], time 7 day): 163 mg/dL | RALB ([…], time 7 day): 2.7 g/dL | TBIL ([…], time 7 day): 0.054 mg/dL | TC ([…], time 7 day): 91 mg/dL | TG ([…], time 7 day): 100.2 mg/dL | TP ([…], time 7 day): 6.1 g/dL | gamma-GTP ([…], time 7 day): 1 IU/L | A/G ([…], time 14 day): 0.8 | ALP ([…], time 14 day): 1317.4 IU/L | ALT ([…], time 14 day): 34.6 IU/L | AST ([…], time 14 day): 58.6 IU/L | BUN ([…], time 14 day): 15.8 mg/dL | CRE ([…], time 14 day): 0.2 mg/dL | Ca ([…], time 14 day): 10.9 mg/dL | Cl ([…], time 14 day): 106.6 meq/L | DBIL ([…], time 14 day): 0.012 mg/dL | GLC ([…], time 14 day): 187 mg/dL | IP ([…], time 14 day): 6.5 mg/dL | K ([…], time 14 day): 3.5 meq/L | LDH ([…], time 14 day): 49.6 IU/L | Na ([…], time 14 day): 144.4 meq/L | PL ([…], time 14 day): 156.6 mg/dL | RALB ([…], time 14 day): 2.8 g/dL | TBIL ([…], time 14 day): 0.046 mg/dL | TC ([…], time 14 day): 88.2 mg/dL | TG ([…], time 14 day): 88.8 mg/dL | TP ([…], time 14 day): 6.3 g/dL | gamma-GTP ([…], time 14 day): 1.4 IU/L | A/G ([…], time 28 day): 0.7 | ALP ([…], time 28 day): 844.2 IU/L | ALT ([…], time 28 day): 32.8 IU/L | AST ([…], time 28 day): 52.6 IU/L | BUN ([…], time 28 day): 16.2 mg/dL | CRE ([…], time 28 day): 0.3 mg/dL | Ca ([…], time 28 day): 11 mg/dL | Cl ([…], time 28 day): 103.8 meq/L | DBIL ([…], time 28 day): 0.012 mg/dL | GLC ([…], time 28 day): 189.6 mg/dL | IP ([…], time 28 day): 6.1 mg/dL | K ([…], time 28 day): 3.5 meq/L | LDH ([…], time 28 day): 53.6 IU/L | Na ([…], time 28 day): 144.4 meq/L | PL ([…], time 28 day): 167.2 mg/dL | RALB ([…], time 28 day): 2.7 g/dL | TBIL ([…], time 28 day): 0.056 mg/dL | TC ([…], time 28 day): 91.4 mg/dL | TG ([…], time 28 day): 132 mg/dL | TP ([…], time 28 day): 6.5 g/dL | gamma-GTP ([…], time 28 day): 1.4 IU/L
